According to article PMC6368337, “GluClR-mediated inhibitory postsynaptic currents reveal targets for ivermectin and potential mechanisms of ivermectin resistance” (PLoS Pathogens, 2019):

Tests used:
Format in all cases: cell-based, H. contortus
[1] = target: β GluClRs (Haemonchus contortus, UniProt P91730); test: Two-electrode voltage clamp in oocytes, β GluClRs; settings: EC50, oocytes, −40 mV
Description: (§1) cDNAs encoding the α (avr-14b) (pcDNA 3.1+) or β (pUNIV) GluClR subunits of H. contortus were nuclear injected into oocytes (NASCO, WI USA) or transfected into HEK293AD cells (CellBank Australia) using a calcium phosphate-DNA co-precipitate method. Synapse formation between neurons and HEK293 cells was promoted by co-transfecting neuroligin 2A or 1B and the cDNA encoding CD4 surface antigen was also added to the transfection mixture so as to identify transfected cells. The oocytes and HEK cells were used for experiments 2–3 days after the introduction of the cDNAs. All experiments were done at room temperature (22 ± 1°C).
Xenopus laevis oocytes were harvested by surgical incision. The oocytes were then defolliculated with 1.5 mg/ml collagenase for 2 hours. Free oocytes were rinsed with calcium-free OR-2 solution containing (in mM) 82.5 NaCl, 2 KCl, 1 MgCl2, 5 HEPES, pH 7.4 and mature stage V or VI oocytes were isolated for experiments. The DNAs coding for α and β subunits were nuclear injected into the oocytes using a Nanoliter 2000 microinjector (WPI Inc) at a ratio of (α:β), 1:0, 0:1, 1:1 and 1:50. […]
Group data were analysed in SigmaPlot 13.0 using one-way ANOVAs, where p < 0.05 was taken as the significance threshold and expressed as mean ± SEM. […] Confocal images were captured and analysed with Zen 2012 SP2 (Zeiss) software. […] Single channel recordings were analysed in QuB software. […]

[2] = target: αβ (1:1) GluClRs (Haemonchus contortus, UniProt O46124+P91730); test: Single channel recording, outside-out patches, αβ (1:1) GluClRs; settings: 2 μM glutamate plus 5 nM IVM
Chain of αβ (1:1) GluClRs (P91730 19-432): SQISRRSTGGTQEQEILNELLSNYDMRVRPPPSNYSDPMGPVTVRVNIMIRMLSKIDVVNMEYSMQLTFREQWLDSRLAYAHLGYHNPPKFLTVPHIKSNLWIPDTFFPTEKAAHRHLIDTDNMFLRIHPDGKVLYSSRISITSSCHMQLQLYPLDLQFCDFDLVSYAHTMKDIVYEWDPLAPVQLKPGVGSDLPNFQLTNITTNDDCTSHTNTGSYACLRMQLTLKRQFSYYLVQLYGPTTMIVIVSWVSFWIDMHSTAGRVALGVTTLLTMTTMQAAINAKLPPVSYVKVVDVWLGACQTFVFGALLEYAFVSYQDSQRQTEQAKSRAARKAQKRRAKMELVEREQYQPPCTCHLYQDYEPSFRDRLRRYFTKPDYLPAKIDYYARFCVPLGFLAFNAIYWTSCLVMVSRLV
Chain of αβ (1:1) GluClRs (O46124 entry or part of it): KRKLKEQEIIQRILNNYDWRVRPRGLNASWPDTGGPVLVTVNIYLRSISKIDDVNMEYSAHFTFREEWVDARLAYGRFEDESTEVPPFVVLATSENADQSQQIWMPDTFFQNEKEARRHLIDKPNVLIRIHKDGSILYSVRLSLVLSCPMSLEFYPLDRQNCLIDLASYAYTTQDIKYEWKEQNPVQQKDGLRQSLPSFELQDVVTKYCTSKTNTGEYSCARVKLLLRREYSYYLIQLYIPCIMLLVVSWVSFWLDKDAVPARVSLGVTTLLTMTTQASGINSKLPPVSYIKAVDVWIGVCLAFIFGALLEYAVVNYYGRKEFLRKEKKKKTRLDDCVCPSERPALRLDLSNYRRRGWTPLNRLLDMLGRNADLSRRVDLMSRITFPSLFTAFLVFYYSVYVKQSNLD
Text: To explore whether a similar mechanism applies to β-containing GluClRs, we recorded single receptor currents in excised patches from cells transfected with either the α and β subunits (1:1) or the β subunit alone. […] By contrast, patches from cells transfected with the β subunit alone invariably opened to an amplitude of 0.4 pA (Fig 6C). Amplitude histograms confirmed two amplitude levels for αβ GluClRs and a single amplitude for the β GluClRs (Fig 6D). […] We infer that the αβ GluClRs that open to 0.7 pA likely contain a greater proportion of β subunits. This is consistent with β GluClRs having the smallest amplitude and α GluClRs having the greatest amplitude (1.8 pA) under similar recording conditions. The calculated conductance values for the corresponding amplitudes for αβ GluClRs was 15.2 pS and 8.9 pS and for the β GluClRs was 5.1 pS.
Single-channel currents were recorded from outside-out excised patches at a clamped potential of −70 mV. The single channel conductance was calculated by dividing the mean current by the net driving force at a clamped potential of ‐70 mV, after accounting for reversal and liquid junction potentials. Excised patches were continuously perfused via a gravity-fed double-barrelled glass tube, which contained extracellular bath solution containing (in mM), 140 NaCl, 5 KCl, 1 MgCl2, 2 CaCl2, 10 HEPES, and 10 D-glucose and titrated to pH 7.4. Glutamate and IVM were dissolved in this extracellular solution. Recording electrodes were pulled from borosilicate glass (G150F-3; Warner Instruments), coated with a silicone elastomer (Sylgard-184; Dow Corning) and heat-polished to a final tip resistance of 4–15 MΩ when filled with an intracellular solution containing (in mM) 145 CsCl, 2 MgCl2, 2 CaCl2, 10 HEPES, and 5 EGTA, pH 7.4. […] A 10 mM stock of IVM (Sigma-Aldrich) was dissolved in 100% DMSO and kept frozen at ‐20°C. Fresh working stocks of IVM at 5 nM were prepared by dissolving the appropriate quantity directly in extracellular solution. 100% DMSO when dissolved in extracellular solution alone at the same concentration as was present in working solutions containing 5 nM IVM had no effect on patches excised from cells transfected with GluClRs or from untransfected cells.
Currents were recorded using an Axopatch 200B amplifier (Molecular Devices), filtered at 5 kHz and digitized at 20 kHz using Clampex (pClamp 10 suite, Molecular Devices) via a Digidata 1440A digitizer.
Group data were analysed in SigmaPlot 13.0 using one-way ANOVAs, where p < 0.05 was taken as the significance threshold and expressed as mean ± SEM. Tests for normally distributed data are built into the SigmaPlot software. Confocal images were captured and analysed with Zen 2012 SP2 (Zeiss) software. Oocyte concentration-response data were fit to a Hill equation to obtain an EC50 and Hill co-efficient for each oocyte recording. These parameters were then averaged across multiple oocyte experiments of the same type. Single channel recordings were analysed in QuB software. […] Patches yielded between 30–250 individual active periods. […] The selected critical times eliminated periods of receptor desensitisation while retaining singe receptor active periods. Mean active period duration and intra-activation open probability was estimated from each patch. Group means were obtained by averaging across multiple patches for each recording condition.

[3] = target: α (avr-14b) GluClRs (Haemonchus contortus, UniProt O46124); test: Two-electrode voltage clamp in oocytes, α GluClRs
Chain of α (avr-14b) GluClRs (O46124 entry or part of it): as above
Description: as §1
Xenopus laevis oocytes were harvested by surgical incision. The oocytes were then defolliculated with 1.5 mg/ml collagenase for 2 hours. Free oocytes were rinsed with calcium-free OR-2 solution containing (in mM) 82.5 NaCl, 2 KCl, 1 MgCl2, 5 HEPES, pH 7.4 and mature stage V or VI oocytes were isolated for experiments. The DNAs coding for α and β subunits were nuclear injected into the oocytes using a Nanoliter 2000 microinjector (WPI Inc) at a ratio of (α:β), 1:0, 0:1, 1:1 and 1:50. The total amount of injected DNA in all combinations was 400 ng ml^−1, including the 1:50 (α:β) combination (8 ng of DNA encoding the α and 392 ng of DNA encoding β subunits). Injected oocytes were incubated in ND96 storage solution (in mM) 96 NaCl, 2 KCl, 1 MgCl2.6H2O, 1.8 CaCl2, 5 HEPES, 50 μg ml^−1 gentamicin, 2.5 sodium pyruvate, 0.5 theophylline, pH 7.4 at 16°C for 2–3 days before experiment.
For the two-electrode voltage clamp recordings, each oocyte was secured in a cell bath that was continually perfused with ND96 recording solution (ND96 storage solution without pyruvate, theophylline and gentamicin). […] The two microelectrodes contained 3 M KCl and had resistances of 0.2–2 MΩ. Recordings were done using Clampex 10.2 software (Molecular Devices) at a clamped voltage of −40 mV. Currents were low-pass filtered at 200 Hz, sampled at 2 kHz using a Gene Clamp 500B amplifier and digitised by a Digidata 1440A interface. The IVM (IVM B1a) concentration-response experiments were standardised by using an application protocol that consisted of applying increasing concentrations of IVM for, respectively, 3 min, 3 min, 3 min, 2 min, 1 min, 1 min and 0.5 min.
Group data were analysed in SigmaPlot 13.0 using one-way ANOVAs, where p < 0.05 was taken as the significance threshold and expressed as mean ± SEM. Tests for normally distributed data are built into the SigmaPlot software. Confocal images were captured and analysed with Zen 2012 SP2 (Zeiss) software. Oocyte concentration-response data were fit to a Hill equation to obtain an EC50 and Hill co-efficient for each oocyte recording. These parameters were then averaged across multiple oocyte experiments of the same type. Single channel recordings were analysed in QuB software. […] The selected critical times eliminated periods of receptor desensitisation while retaining singe receptor active periods. Mean active period duration and intra-activation open probability was estimated from each patch. Group means were obtained by averaging across multiple patches for each recording condition.

Chain of β GluClRs (P91730 19-432): as the sequence (P91730 19-432) above

SMILES: CC[C@H](C)[C@H]1O[C@]2(CC[C@@H]1C)C[C@@H]1C[C@@H](C/C=C(\C)[C@@H](O[C@H]3C[C@H](OC)[C@@H](O[C@H]4C[C@H](OC)[C@@H](O)[C@H](C)O4)[C@H](C)O3)[C@@H](C)/C=C/C=C3\CO[C@@H]4[C@H](O)C(C)=C[C@@H](C(=O)O1)[C@]34O)O2 [IVM, Ivermectin]
- EC50 [1]: > 10000 nM
- increase in mean active period duration compared to 2 μM glutamate alone [2]: over 20 fold
- increase in mean active period duration compared to 3 mM glutamate [2]: 6 fold
- intra-activation open probability (PO) [2]: 0.83 ± 0.02
- mean active period duration ([2]; pooled): 876 ± 178 ms
- EC50 ([3]; EC50, oocytes, holding potential −40 mV): 22 ± 3 nM
- Hill co-efficient ([3]; oocytes, −40 mV): 1.9 ± 0.1
- Emax ([3]; read-out: maximal response, % of that seen with saturating glutamate): 59%
